Laboratory results from the supplement of paper PMC10307832.

Assays:
Assay in all cases: relative viability (nuclei count vs DMSO), 5 days (fraction); higher = more cells survive
[1] = compound: CN(C)C[C@@H]1CCn2cc(c3ccccc32)C2=C(C(=O)NC2=O)c2cn(c3ccccc23)CCO1 [Ruboxistaurin] + CC(C)C[C@H](NC(=O)[C@H](Cc1ccccc1)NC(=O)c1cnccn1)B(O)O [Bortezomib] (partner 0.002 µM)
Method in brief: (§1)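 The day after seeding in 1536-well plates, lung cancer cell lines were treated by pin tool with a single drug, or with a fixed anchor-drug dose together with five library-drug doses (not always all listed) in √10 steps. After 5 days, a combined fix-and-stain solution (final 0.05% Triton X-100, 1% formaldehyde, 1 ug/ml Hoechst) was added. Nuclei counted on 4× images gave relative viability as treated counts over vehicle counts, reported as the median of duplicate plates.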

[2] = compound: CN(C)C[C@@H]1CCn2cc(c3ccccc32)C2=C(C(=O)NC2=O)c2cn(c3ccccc23)CCO1 [Ruboxistaurin] + CCNC(=O)c1noc(-c2cc(C(C)C)c(O)cc2O)c1-c1ccc(CN2CCOCC2)cc1 [Luminespib] (partner 0.01 µM)
Method in brief: as §1

[3] = compound: CN(C)C[C@@H]1CCn2cc(c3ccccc32)C2=C(C(=O)NC2=O)c2cn(c3ccccc23)CCO1 [Ruboxistaurin] + COc1cc2c(Oc3ccc(NC(=O)C4(C(=O)Nc5ccc(F)cc5)CC4)cc3F)ccnc2cc1OCCCN1CCOCC1 [Foretinib] (partner 0.25 µM)
Method in brief: as §1

[4] = compound: CN(C)C[C@@H]1CCn2cc(c3ccccc32)C2=C(C(=O)NC2=O)c2cn(c3ccccc23)CCO1 [Ruboxistaurin] + Cc1cc(Nc2cc(N3CCN(C)CC3)nc(Sc3ccc(NC(=O)C4CC4)cc3)n2)n[nH]1 [Tozasertib] (partner 0.1 µM)
Method in brief: as §1

[5] = compound: CN(C)C[C@@H]1CCn2cc(c3ccccc32)C2=C(C(=O)NC2=O)c2cn(c3ccccc23)CCO1 [Ruboxistaurin] + O=C(CCCCCCC(=O)Nc1ccccc1)NO [Vorinostat] (partner 1 µM)
Method in brief: as §1

| Cell Line | relative viability ([1]; first compound 0.08 µM) | relative viability ([1]; first compound 0.8 µM) | relative viability ([1]; first compound 2.53 µM) | relative viability ([1]; first compound 8 µM) | relative viability ([2]; first compound 0.08 µM) | relative viability ([2]; first compound 0.8 µM) | relative viability ([2]; first compound 2.53 µM) | relative viability ([2]; first compound 8 µM) | relative viability ([3]; first compound 0.08 µM) | relative viability ([3]; first compound 0.8 µM) | relative viability ([3]; first compound 2.53 µM) | relative viability ([3]; first compound 8 µM) | relative viability ([4]; first compound 0.08 µM) | relative viability ([4]; first compound 0.8 µM) | relative viability ([4]; first compound 2.53 µM) | relative viability ([4]; first compound 8 µM) | relative viability ([5]; first compound 0.08 µM) | relative viability ([5]; first compound 0.8 µM) | relative viability ([5]; first compound 2.53 µM) | relative viability ([5]; first compound 8 µM) |
| --- | --- | --- | --- | --- | --- | --- | --- | --- | --- | --- | --- | --- | --- | --- | --- | --- | --- | --- | --- | --- |
| EKVX | 1.15 | 0.998 | 1.18 | 0.946 | 0.945 | 0.843 | 0.919 | 0.926 | 0.898 | 0.694 | 0.848 | 0.738 | 0.411 | 0.401 | 0.415 | 0.367 | 0.841 | 0.65 | 0.714 | 0.75 |
| EMC-BAC-2 | 1.1 | 0.99 | 1.04 | 0.962 | 1.23 | 1.12 | 0.991 | 0.925 | 1.03 | 0.872 | 1.03 | 0.51 | 0.29 | 0.254 | 0.272 | 0.17 | 0.53 | 0.461 | 0.523 | 0.384 |
| EPLC-272H | 1.04 | 0.691 | 1.01 | 1.01 | 0.368 | 0.224 | 0.293 | 0.668 | 0.853 | 0.548 | 0.703 | 0.472 | 0.205 | 0.247 | 0.253 | 0.247 | 0.498 | 0.48 | 0.357 | 0.429 |
| H3255 | 0.854 | 0.844 | 0.869 | 0.732 | 1.02 | 0.726 | 0.957 | 0.865 | 0.849 | 0.867 | 0.879 | 0.876 | 0.658 | 0.603 | 0.714 | 0.836 | 0.717 | 0.717 | 0.815 | 0.898 |
